Patent publication US20160311760A1, “COMPOUNDS FOR TREATMENT OF CARDIAC ARRHYTHMIAS” (ELEX BIOTECH, LLC, priority 2013, published 2016)

Legend:
[1] = in vitro; conditions: human
[2] = molecular target: T1, RyR2 (Mus musculus, UniProt E9Q401); assay: Ca2+ spark frequency assay in ventricular myocytes from CPVT mouse model (R176Q/+); assay type: cell-based; conditions: cells derived from a CPVT mouse model (R176Q/+ ventricular myocytes); read-out: IC50 (inhibition of calcium spark frequency)
T1 construct: other: cells derived from a CPVT mouse model (R176Q/+ ventricular myocyte)
T1 sequence (E9Q401 whole entry R176Q, form open): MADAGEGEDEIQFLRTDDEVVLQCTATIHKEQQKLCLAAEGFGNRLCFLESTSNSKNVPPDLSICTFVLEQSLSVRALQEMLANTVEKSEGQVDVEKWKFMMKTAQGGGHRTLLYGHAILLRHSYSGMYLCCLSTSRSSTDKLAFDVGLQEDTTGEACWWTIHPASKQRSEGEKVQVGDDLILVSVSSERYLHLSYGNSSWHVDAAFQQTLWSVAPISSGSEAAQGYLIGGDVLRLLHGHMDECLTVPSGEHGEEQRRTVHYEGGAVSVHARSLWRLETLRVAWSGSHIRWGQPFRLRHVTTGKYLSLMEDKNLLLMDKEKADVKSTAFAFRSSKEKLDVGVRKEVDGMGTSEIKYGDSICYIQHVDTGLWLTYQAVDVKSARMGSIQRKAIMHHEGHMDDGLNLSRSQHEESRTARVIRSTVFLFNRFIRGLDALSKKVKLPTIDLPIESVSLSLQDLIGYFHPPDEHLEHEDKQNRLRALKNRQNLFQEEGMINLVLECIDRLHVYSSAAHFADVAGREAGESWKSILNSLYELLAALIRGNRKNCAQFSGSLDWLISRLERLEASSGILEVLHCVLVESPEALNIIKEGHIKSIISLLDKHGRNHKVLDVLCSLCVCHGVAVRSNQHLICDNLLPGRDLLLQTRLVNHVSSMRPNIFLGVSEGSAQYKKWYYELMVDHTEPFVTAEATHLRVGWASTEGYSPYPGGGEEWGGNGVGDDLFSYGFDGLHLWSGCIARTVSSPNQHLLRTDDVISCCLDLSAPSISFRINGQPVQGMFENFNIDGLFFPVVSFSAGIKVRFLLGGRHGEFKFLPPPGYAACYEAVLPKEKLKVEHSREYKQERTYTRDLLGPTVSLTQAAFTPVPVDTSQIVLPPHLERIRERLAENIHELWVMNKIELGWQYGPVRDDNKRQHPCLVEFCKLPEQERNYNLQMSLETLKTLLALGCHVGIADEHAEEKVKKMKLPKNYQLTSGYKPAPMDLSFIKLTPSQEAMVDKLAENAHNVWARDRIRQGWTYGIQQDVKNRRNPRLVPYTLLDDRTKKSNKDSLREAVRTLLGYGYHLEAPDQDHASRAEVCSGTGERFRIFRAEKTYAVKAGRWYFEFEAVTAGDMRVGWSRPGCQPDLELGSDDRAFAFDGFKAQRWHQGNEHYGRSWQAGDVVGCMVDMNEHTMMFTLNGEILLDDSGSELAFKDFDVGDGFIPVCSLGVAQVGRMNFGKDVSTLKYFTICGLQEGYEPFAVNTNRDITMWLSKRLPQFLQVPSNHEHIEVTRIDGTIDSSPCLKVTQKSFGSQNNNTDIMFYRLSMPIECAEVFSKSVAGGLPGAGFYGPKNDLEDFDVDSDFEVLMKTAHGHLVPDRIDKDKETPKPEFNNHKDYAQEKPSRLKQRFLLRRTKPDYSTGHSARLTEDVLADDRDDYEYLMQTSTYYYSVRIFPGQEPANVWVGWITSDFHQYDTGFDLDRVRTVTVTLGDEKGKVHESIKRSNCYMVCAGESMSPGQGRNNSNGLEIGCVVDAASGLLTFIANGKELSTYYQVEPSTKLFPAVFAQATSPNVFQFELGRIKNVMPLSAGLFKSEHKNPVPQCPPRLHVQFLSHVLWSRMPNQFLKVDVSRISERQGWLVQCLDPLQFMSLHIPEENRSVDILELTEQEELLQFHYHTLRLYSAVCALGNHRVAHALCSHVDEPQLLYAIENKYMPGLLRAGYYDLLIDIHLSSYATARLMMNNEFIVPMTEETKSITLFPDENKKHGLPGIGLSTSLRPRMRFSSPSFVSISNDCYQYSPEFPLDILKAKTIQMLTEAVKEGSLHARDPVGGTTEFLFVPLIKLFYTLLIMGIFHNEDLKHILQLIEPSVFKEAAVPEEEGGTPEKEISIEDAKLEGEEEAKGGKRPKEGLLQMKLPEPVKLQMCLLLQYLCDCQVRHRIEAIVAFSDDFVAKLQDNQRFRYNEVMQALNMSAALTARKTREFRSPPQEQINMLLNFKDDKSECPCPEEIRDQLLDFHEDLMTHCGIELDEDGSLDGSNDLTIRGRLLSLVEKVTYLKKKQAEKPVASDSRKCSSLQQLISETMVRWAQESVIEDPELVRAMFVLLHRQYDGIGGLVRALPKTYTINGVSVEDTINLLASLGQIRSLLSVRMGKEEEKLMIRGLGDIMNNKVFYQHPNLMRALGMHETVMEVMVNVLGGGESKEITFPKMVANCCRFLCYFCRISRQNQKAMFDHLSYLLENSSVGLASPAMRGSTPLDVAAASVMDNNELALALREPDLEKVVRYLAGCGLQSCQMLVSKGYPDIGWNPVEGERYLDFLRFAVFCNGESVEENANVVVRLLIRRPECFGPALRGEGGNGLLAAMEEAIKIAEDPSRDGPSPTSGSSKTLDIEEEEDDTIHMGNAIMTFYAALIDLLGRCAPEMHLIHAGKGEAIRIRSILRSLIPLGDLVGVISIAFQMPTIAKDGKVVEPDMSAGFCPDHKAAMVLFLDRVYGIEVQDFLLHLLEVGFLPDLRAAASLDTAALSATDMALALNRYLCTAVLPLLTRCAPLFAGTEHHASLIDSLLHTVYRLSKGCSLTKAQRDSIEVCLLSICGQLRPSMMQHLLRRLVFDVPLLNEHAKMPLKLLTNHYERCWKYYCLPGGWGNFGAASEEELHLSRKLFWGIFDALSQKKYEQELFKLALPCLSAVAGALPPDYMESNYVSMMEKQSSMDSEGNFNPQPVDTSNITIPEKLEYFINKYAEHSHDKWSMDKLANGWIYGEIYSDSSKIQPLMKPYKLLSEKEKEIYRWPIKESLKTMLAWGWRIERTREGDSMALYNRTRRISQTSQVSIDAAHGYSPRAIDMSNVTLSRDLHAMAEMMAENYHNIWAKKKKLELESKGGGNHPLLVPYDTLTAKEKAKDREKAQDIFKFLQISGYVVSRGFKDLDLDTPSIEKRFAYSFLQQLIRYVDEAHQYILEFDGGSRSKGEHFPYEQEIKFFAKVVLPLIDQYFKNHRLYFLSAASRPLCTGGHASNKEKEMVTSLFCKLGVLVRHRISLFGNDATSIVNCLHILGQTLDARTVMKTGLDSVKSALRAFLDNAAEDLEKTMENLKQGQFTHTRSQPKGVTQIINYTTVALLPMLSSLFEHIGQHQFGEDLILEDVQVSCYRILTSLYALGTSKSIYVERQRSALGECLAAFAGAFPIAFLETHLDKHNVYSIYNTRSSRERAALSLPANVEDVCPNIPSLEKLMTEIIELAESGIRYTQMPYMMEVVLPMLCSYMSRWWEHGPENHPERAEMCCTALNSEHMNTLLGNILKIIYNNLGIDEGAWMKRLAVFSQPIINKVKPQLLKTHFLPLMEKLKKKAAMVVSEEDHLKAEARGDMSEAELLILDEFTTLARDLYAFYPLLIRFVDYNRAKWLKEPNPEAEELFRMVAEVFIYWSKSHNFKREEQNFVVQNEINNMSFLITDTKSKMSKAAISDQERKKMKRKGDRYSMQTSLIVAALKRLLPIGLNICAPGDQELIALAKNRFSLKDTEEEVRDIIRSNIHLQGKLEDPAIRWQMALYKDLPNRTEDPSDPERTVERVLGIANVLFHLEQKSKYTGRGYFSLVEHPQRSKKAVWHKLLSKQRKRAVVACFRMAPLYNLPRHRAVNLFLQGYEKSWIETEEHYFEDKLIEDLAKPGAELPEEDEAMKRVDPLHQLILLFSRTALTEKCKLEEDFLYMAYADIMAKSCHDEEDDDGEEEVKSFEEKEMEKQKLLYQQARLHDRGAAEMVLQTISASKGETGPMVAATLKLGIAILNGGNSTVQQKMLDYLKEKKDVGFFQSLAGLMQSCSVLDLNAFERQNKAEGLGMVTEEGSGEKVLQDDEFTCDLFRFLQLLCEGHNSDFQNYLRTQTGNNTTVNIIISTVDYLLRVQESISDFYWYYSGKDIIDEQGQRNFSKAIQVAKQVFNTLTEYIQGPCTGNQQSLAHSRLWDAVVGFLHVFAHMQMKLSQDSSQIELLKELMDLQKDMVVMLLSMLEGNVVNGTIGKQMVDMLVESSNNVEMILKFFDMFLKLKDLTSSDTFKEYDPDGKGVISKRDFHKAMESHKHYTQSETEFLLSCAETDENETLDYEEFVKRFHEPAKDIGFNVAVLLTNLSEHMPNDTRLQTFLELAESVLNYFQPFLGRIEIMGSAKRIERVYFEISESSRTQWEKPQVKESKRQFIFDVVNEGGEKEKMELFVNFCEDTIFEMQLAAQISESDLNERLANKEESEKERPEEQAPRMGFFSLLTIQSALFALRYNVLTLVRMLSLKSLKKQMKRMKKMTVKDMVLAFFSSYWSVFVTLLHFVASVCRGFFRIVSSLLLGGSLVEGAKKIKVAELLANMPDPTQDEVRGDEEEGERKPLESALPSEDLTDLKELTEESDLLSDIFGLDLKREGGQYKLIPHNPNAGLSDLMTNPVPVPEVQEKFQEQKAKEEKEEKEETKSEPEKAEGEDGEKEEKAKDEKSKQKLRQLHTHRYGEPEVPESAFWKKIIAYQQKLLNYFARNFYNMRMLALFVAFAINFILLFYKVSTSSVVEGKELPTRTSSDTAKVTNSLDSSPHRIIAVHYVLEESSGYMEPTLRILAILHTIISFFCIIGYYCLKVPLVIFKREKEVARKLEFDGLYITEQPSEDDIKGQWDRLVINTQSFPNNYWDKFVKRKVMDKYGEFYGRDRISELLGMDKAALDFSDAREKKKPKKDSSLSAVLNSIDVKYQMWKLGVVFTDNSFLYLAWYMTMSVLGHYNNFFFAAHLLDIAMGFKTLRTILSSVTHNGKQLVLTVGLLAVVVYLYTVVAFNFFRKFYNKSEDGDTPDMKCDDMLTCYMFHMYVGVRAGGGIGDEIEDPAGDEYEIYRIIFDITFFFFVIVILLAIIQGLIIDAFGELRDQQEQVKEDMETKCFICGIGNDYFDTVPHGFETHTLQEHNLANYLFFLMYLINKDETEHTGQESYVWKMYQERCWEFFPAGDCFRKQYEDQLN
Excerpt: (§1) Therein, calcium spark frequency data are shown in the presence of increasing amounts of added compound. IC50 is a measure of the effectiveness of a substance in inhibiting a particular biological process or function. Calcium spark frequency is plotted along the y-axis and compound concentration is plotted along the x-axis. Example dose-response curve 120 is included to illustrate the inhibitory effect of Compound 1 on spark frequency for the cells derived from a CPVT mouse model. The quantitative value of IC50 can be determined by identifying the concentration where half of the maximum biological response, such as the calcium spark response, is inhibited. For example, at lower compound concentrations dose-response curve 110 has a higher level of calcium spark frequency, whereas at higher compound concentrations, a transition of the calcium spark frequency to a lower level is observed. The concentration at which the sigmoidal curve of data response curve 120 has a spark frequency reduced by half corresponds to the IC50. […] Thus, as one example, a method for treating cardiac arrhythmias may include administering an amount of Compound 1 to a subject afflicted with heart arrhythmias. The administration may be performed via known routes, such as oral, epidermal, subcutaneous, intravenous, peritoneal, etc.
(§2) Functional Assays in CPVT mouse cells may include isolating ventricular cardiomyocytes from adult (2-3 month-old) R176Q/+ mice or WT littermates. In one exemplary assay, myocytes were loaded with 2 μM Fluo-4-AM in a normal Tyrode solution containing 1.8 mM Ca2+ for 30 minutes at room temperature before washing the cells with Tyrode solution for 15 minutes for de-esterification and transfering to a chamber equipped with parallel platinum electrodes.
(§3) After baseline measurements were completed, myocytes were exposed to the test lead compound. After a 5 min superfusion period, Ca2+ sparks were again measured in the same cell in the presence of the drug compound. The frequency of Ca2+ sparks (CaSpF) were calculated, e.g., using SparkMaster (Picht, E., et al., SparkMaster: automated calcium spark analysis with ImageJ. Am J Physiol Cell Physiol, 2007. 293(3): p. C1073-81), and applications before and after inclusion of the test compound were compared. A detailed dose-response relationship and measurements of inhibition of arrhythmogenic Ca2+ waves in ventricular myocytes from a CPVT mouse model (R176Q/+) were then completed on those compounds showing a significant decrease in spark frequency at 0.5 μM. At the conclusion of these experiments, the Ca2+ spark inhibition rate is calculated as a function of concentration for each compound tested, and an IC50 value determined for each drug compound. […] FIG. 4 compares an exemplary confocal line-scan image of Ca2+ spark recordings from ventricular myocytes isolated from wild-type (WT) mice at 410 relative to those isolated from S2814D mice as shown at 420.
(§4) The above-discussed Ca2+ spark assay was used with R176Q/+ myocytes as an initial screening assay to test the ability of new compounds to inhibit spontaneous pathological SR Ca2+ release in ventricular myocytes.

[3] = tested on: RyR2; assay: as above; assay type: cell-based; conditions: versus tetracaine
Excerpt: as §1, §2, §3, §4

[4] = Effect on the length of the AP
Method: (§5) For example, the concentration of lead compound Compound 1 that suppressed ventricular tachycardia is approximately 0.5% of compound K201 (JTV519) that was previously used to inhibit arrhythmias in a similar mouse model. […] Therefore, advantages exist with regard to reduction of dosage response time compared to previously used drugs to inhibit arrhythmias. […] While Compound 1 inhibits sparks and arrhythmias at 35 nM, the ATPase activity of SERCA2 has been measured versus concentration of Compound 1. At concentrations of 1 μM, 10 μM and 50 μM, ATPase activity was unaffected (data not shown). The data shown in FIGS. 2 and 3 have been repeated several times with different animals (e.g., rabbit model).

[5] = tested on: R176Q/+ mice; assay: Arrhythmias (ventricular tachycardia) after cardiac pacing / programmed electrical stimulation in CPVT mice, whole animal level; assay type: in vivo, mouse
Excerpt: Ventricular tachycardia (or VT) is a type of tachycardia, or a rapid heart beat that arises from improper electrical activity of the heart that presents as a rapid heart rhythm. VT is associated with the bottom chambers of the heart, called the ventricles, which are pumping chambers of the heart. […] Therein, electrical signals for four different CPVT mice are shown. Wild type (or WT) signal 210 is provided for reference to illustrate a sinus rhythm (e.g., L2-ECG, lead 2 of the surface ECG). Atrial and ventricular intracardiac electrocardiogram signals are also provided for reference.

[6] = in vitro; conditions: human; remark: listed apart in the source
[7] = molecular target: SERCA2 (Homo sapiens, UniProt P16615); assay: ATPase activity of SERCA2 versus concentration; assay type: biochemical
Method: as §5

[8] = Cytotoxicity in HEK293; conditions: human, HEK293 cells
[9] = molecular target: RyR (Oryctolagus cuniculus, UniProt P11716); conditions: literature value; cited from earlier work
[10] = Cytotoxicity in HepG2; conditions: human, HepG2 cells

Row | SMILES | IC50 [1] [µM] | IC50 [2] [µM] | IC50 [6] [µM] | further results
1 | CCCCNc1ccc(C(=O)OCCN(CC)CC)c(OC)c1 [Compound 1] | > 50 | 0.035 | > 50 | potency relative to the parent molecule tetracaine (inhibiting RyR2 activity / CRC) [3]: ~3000 times; effect on the length of the AP [4]: No indication has been observed that Compound 1 has any effect on the length of the AP; level at which arrhythmias are decreased in the whole animal ([5]; CPVT mice, whole animal level): 2.5 µg/kg; concentration with antiarrhythmic activity, as share of that of flecainide ([5]; CPVT mouse model, versus flecainide): 0.1%; arrhythmic development following pacing ([5]; R176Q/+ mice, cardiac pacing, ECG (FIG. 2)): protected from arrhythmic development following pacing; time to inhibition of arrhythmias ([5]; injected in the tail of the mouse): ≤ 10 min; concentration that suppressed ventricular tachycardia, as share of that of K201 (JTV519) ([5]; versus K201 in a similar mouse model): approximately 0.5%; ATPase activity of SERCA2 ([7]; 1 μM): unaffected; ATPase activity of SERCA2 ([7]; 10 μM): unaffected; ATPase activity of SERCA2 ([7]; 50 μM): unaffected
2 | CCCCNc1cc(OC)c(C(=O)OCCN(CC)CC)cc1Cl [Compound 2] | > 50 | 0.011 | > 50 | 
3 | CCCCNc1ccc(C(=O)O)cc1N(CCCC)CCCC [Compound 3] | > 50 | 0.5 | > 50 | 
4 | CCCCNc1ccc(OC(C)=O)cc1C [Compound 4] |  | 0.63 |  | 
5 | CCCCNc1ccc(C(=O)OCCNCC)cc1C [Compound 5] | > 50 | 0.8 | > 50 | 
6 | CCCCNc1ccc(C(=O)OCCN(C)C)cc1.Cl [Tetracaine] |  |  |  | IC50 [8]: > 50 µM; concentration at which the RyR is inhibited [9]: ~150 µM; IC50 [10]: > 50 µM
